Laboratory results reported in patent US20240368566A1, “PYK2-DERIVED PEPTIDES FOR INHIBITING INVADOPODIA-MEDIATED CANCER METASTASIS” (BAR-ILAN UNIVERSITY, priority 2023, published 2024).
Where no end group is shown, it is not given here.

Columns and labels:
[1] = tested on: interaction between Pyk2 and cortactin in invadopodia; assay: Acceptor photobleaching FRET assay; assay type: cell-based, human; conditions: 0.1, 1, 5 μM peptide; mature matrix-degrading invadopodia
Experimental: Acceptor photobleaching experiments were performed as described in Genna et al., 2018 (supra). In brief, cortactin-TagRFP MDA-MB-231 cells were plated on Alexa 405 gelatin in a medium containing Pyk2-PRR or scrambled control peptides at 0.1, 1, and 5 μM concentration, fixed, and immunostained with pY402-Pyk2/Alexa Fluor 488-goat anti-rabbit (donor) and cortactin/Alexa Fluor 555-goat anti-mouse (acceptor). As a control, cells were stained with Tks5/Alexa Fluor 488-goat anti-rabbit (donor) and cortactin/Alexa Fluor 555-goat anti-mouse (acceptor). Co-localization of cortactin with degradation holes in Alexa 405-labeled gelatin was used to identify mature degrading invadopodia. For all FRET experiments, cells were imaged in PBS at room temperature on a laser-scanning inverted confocal microscope (Zeiss LSM780; 60×, NA 1.4, oil objective). A region of interest surrounding invadopodia was bleached using 100% 561-nm laser power (acceptor channel), and images were acquired in both the 488 nm and the 561 nm channels before and after bleaching. FRET efficiency was calculated as the E=1−(donor pre/donor post) in background-subtracted images and was corrected for fluctuations in laser power and donor bleaching in ImageJ.

4T1 cells = assay: Spontaneous lung metastasis clonogenic assay in 4T1 xenograft mouse model; assay type: in vivo, BALB/c female mice; conditions: 10 mg/kg once a day for eight days, intraperitoneal injection, HIV-TAT fused peptide; versus scrambled control
Experimental: All experimental procedures were conducted following the Federation of Laboratory Animal Science Association (FELSA) and were approved by the Bar-Ilan University animal use and care committee. Mouse xenograft tumors were generated by injecting 10^6 4T1 cells resuspended in 20% collagen I (BD Biosciences, Franklin Lakes, NJ, USA) in PBS into the lower-left mammary gland of 8-week-old BALB/c female mice. […] 4T1 cells have intrinsic resistance to 6-thioguanine, which enables precise quantification of metastatic cells, even when they are disseminated at sub-microscopic levels at distant organs, upon excision and digestion of selected organs. The clonogenic assay is based on a principle by which one colony represents one metastatic cell. Briefly, spontaneous lung metastasis was measured in BALB/c mice bearing orthotopic 4T1 tumors of equal size (1-1.2 cm in diameter). Lungs were excised and minced and plated in RPMI/10% FBS in the presence of 6-thioguanine to select for tumor cells only. Cells were plated in a 5% CO2 incubator at 37° C. for 14 days to form 4T1 colonies. On day 14 after plating, the medium was removed from dishes, and colonies were fixed in 4% paraformaldehyde for one hour at room temperature. Colonies were then stained in 2% crystal violet solution and thoroughly washed with PBS. Plates were allowed to air dry, and colonies in each plate were quantified. […]

MDA-MB-231 cells [2] = assay: ECM degradation assay; assay type: cell-based, human; conditions: 24 h on fluorescent fibronectin/gelatin matrix; compared to control peptide
Experimental: The in vitro matrix degradation assay was performed as described in Genna et al., 2018 (supra). Briefly, MatTek dishes were treated with 2.5% gelatin/2.5% sucrose, cross-linked with 0.5% glutaraldehyde, treated with 10 μg/ml of fluorescently labeled fibronectin (Alexa 568; Invitrogen, Thermo Fischer Scientific), and then with 1 mg/ml NaBH4 in PBS. 125,000 cells were plated on the fibronectin/gelatin matrix in Pyk2-PRR or control peptides and allowed to degrade for 24 h. Cells were then fixed in 3.7% paraformaldehyde, and random fields were imaged using an inverted fluorescent microscope (Leica AF6000; 40×, NA 1.3, oil objective). ECM degradation was analyzed by quantifying the average degraded area in pixels per field using ImageJ.

MDA-MB-231 cells [3] = assay: Invadopodium precursor formation assay; assay type: cell-based, human; conditions: 4 h, 0.1, 1 or 5 μM peptide
Experimental: The invadopodium precursor formation assay was performed as described in Genna et al., 2018 (supra). Briefly, gelatin was conjugated to Alexa 405 dye (Thermo Fisher Scientific). MatTek dishes were treated with 1 N HCl and coated with 50 μg/ml poly-L-lysine. A 0.2% gelatin solution was prepared in PBS, and a 1:20 mixture of Alexa 405-labeled gelatin/unlabeled gelatin was warmed to 37° C. before addition to the poly-L-lysine coated plates. Gelatin was cross-linked with 0.01% glutaraldehyde followed by quenching with 5 mg/ml sodium borohydride. 125,000 MDA-MB-231 cells were plated on Alexa 405-labeled gelatin plates in the presence of 0.1, 1, or 5 μM of Pyk2-PRR peptides or scrambled control for 4 h. At the end of incubation, cells were fixed in 3.7% paraformaldehyde, permeabilized with 0.1% Triton X-100, blocked with 1% FBS, 1% BSA in PBS, and labeled with anti-Tks5 and anti-cortactin. Images were acquired using an inverted fluorescent microscope (Leica AF6000; 63×, NA 1.4, oil objective, Leica LAS AF acquisition software) (Wetzlar, Germany) equipped with an ORCA-Flash 4.0 V2 digital CMOS camera (Hamamatsu Photonics, Shizuoka, Japan).

[4] = target: T1, cortactin-SH3 domain (mouse cortactin SH3 domain, GenBank ID U03184; nucleotides 1468-1641) (mouse, UniProt Q60598 490-546, isotopically labeled (15N, 13C and/or 2H) for NMR); assay: NMR chemical shift titration (1H,15N-HSQC), unlabeled peptide into 15N-SH3
T1 construct: domain: SH3 domain; also called purified cortactin-SH3

[5] = target: T1, cortactin-SH3 domain (mouse cortactin …); assay: NMR chemical shift titration

T1 sequence (Q60598 490-546 limits assumed, one chain of several): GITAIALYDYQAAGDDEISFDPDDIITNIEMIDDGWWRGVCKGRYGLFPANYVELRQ

Row | Molecule | interaction between Pyk2 and cortactin in invadopodia (FRET) [1] | lung metastases (6-thioguanine-resistant colonies) (4T1 cells) | matrix degradation (degradation area) (MDA-MB-231 cells [2]) | mature, matrix-degrading invadopodia (MDA-MB-231 cells [3]; co-localization with degradation regions) | immature invadopodium precursors (MDA-MB-231 cells [3]; cortactin and Tks5 co-localization) | Kd [4] [µM] | fold higher affinity than Pyk2-PRR3 [5] [fold]
1 | TAFQEPAPKASQAQYRPPP [Pyk2 super-mutant, TAFQEPAPKASQAQYRPPP] | does not significantly inhibit | no significant differences in colony number | small but significant reduction | small but significant reduction | no significant effect | – | –
2 | TAFQEPPPKPSRPKYRPPP (Unlabeled synthetic peptide as used in the NMR experiments; Positions count on UniProt Q14289) [Pyk2-PRR2 peptide (SEQ ID NO: 1)] | – | – | – | – | – | 40 | 16
